Measurements: patent US20150087627A1, “COMBINATION OF KINASE INHIBITORS AND USES THEREOF” (Intellikine LLC, priority 2011, published 2015)

Tests used:
PI3K α (p110α/p85α) = molecular target: T1, PI3K α (p110α/p85α) (Homo sapiens, UniProt P42336); experiment: PI 3-Kinase (human) HTRF assay, PI3K α; assay type: biochemical; conditions: over mTOR and other PI3K isoforms; FIG. 6C
T1 construct: purchased Upstate / Millipore Corporation

[1] = system: preclinical breast cancer model; experiment: Preclinical breast cancer model, tumor weight / volume; assay type: in vivo; conditions: 70 mg/kg Pan-PI3K inhibitor; 60 mg/kg compound A; FIG. 9 left panel
B cell function = experiment: TNP-Ficoll immunization, antibody production (FIG. 8); assay type: in vivo; conditions: mice immunized with TNP-Ficoll, 7 days, 70 mg/kg GDC0941, 30, 60 or 120 mg/kg Compound A
Experimental: Mice were immunized with TNP-Ficoll and treated with 1) vehicle; 2) 70 mg/kg GDC0941; 3) 30 mg/kg Compound A; 4) 60 mg/kg Compound A; or 5) 120 mg/kg Compound A for 7 days. Antibody production was measured as a percentage of control group that were treated with vehicle.

[2] = system: MDA-MB-361, MDA-MB-453 and SKBr3 breast cancer cells; experiment: Western blot of PI3K pathway in cell lines with elevated PI3K α activity (FIG. 11); assay type: cell-based; conditions: cell lines with elevated PI3K α activity: MDA-MB-361, MDA-MB-453 (PIK3CA mutation), SKBr3 (HER2)
[3] = system: Akt phosphorylation at serine 473; experiment: Western blot of Akt phosphorylation at serine 473 (FIG. 12); assay type: cell-based
[4] = system: tumor cells harboring PI3K α mutations; experiment: Tumor cell proliferation panel (FIG. 13); assay type: cell-based
[5] = system: MDA-MB-361 (PI3Kα/HER2 carcinoma) tumors; experiment: In vivo efficacy in xenogenic mouse model of breast cancer; design: species or system Nude mice; conditions: 60 mg/kg, FIG. 9 left panel
Experimental: Blood glucose was monitored periodically following administration of treatment.
Treatment of tumors (MDA-MB-361) with compounds was discontinued on Day 30. Tumors were measured every 2-5 days.

[6] = system: anti-TNP antibody production; experiment: TNP-Ficoll T-cell independent B-cell activation assay; assay type: in vivo, mice; conditions: 30, 60 or 120 mg/kg for 7 days, FIG. 8
Experimental: To test the effects of the compounds of the present invention in suppressing T cell independent antibody production, the TNP-Ficoll B-cell activation assay is used as described herein. Compounds of the present invention are dissolved in an appropriate vehicle (e.g. 5% 1-methyl-2-pyrrolidinone, 85% polyethylene glycol 400, 10% Solutor). Compounds are administered orally approximately 1 hr before TNP-Ficoll treatment to 4-10 week old mice. To study the effects of the compounds on B-cell activation, one set of mice are grouped according to the following table:
Four animals in group 1, and eight animals in groups 2 to 7 are euthanized in CO2 2 hours after the last compound administration on day 7. […]
Serum samples are analyzed for anti-TNP antibody titers by ELISA as described herein. […] HRP substrate (200 μl ABTS solution+30% H2O2+10 ml citrate buffer) is added to each well at 100 μl/well, incubated 2-20 minutes in the dark and the amount of anti-TNP IgG3 is determined spectrophotometrically at 405 nm. Similarly, anti-TNP IgM and total anti-TNP Ab are determined using anti-mouse IgM-HRP and anti-mouse Ig-HRP respectively.
Antibody production was measured using ELISA and plotted as a percentage of control group that were treated with vehicle.

[7] = Steady state blood glucose in nude mice (Example 41); assay type: in vivo, Mus musculus; conditions: mean AUC after the last dose (Day 28)
Experimental: Blood glucose levels were measured via a tail knick using Abbott's “Freestyle Lite” Handheld Blood Glucose Monitor (Abbott Laboratories) at 15, 30, 60, 90, 120, and 1440 minutes after the last dose (Day 28).

Akt phosphorylation = experiment: Western blot of Akt phosphorylation at serine 473 and threonine 308 (FIG. 7); assay type: cell-based; conditions: serine 473 versus threonine 308

T1 sequence (P42336 whole entry, canonical isoform): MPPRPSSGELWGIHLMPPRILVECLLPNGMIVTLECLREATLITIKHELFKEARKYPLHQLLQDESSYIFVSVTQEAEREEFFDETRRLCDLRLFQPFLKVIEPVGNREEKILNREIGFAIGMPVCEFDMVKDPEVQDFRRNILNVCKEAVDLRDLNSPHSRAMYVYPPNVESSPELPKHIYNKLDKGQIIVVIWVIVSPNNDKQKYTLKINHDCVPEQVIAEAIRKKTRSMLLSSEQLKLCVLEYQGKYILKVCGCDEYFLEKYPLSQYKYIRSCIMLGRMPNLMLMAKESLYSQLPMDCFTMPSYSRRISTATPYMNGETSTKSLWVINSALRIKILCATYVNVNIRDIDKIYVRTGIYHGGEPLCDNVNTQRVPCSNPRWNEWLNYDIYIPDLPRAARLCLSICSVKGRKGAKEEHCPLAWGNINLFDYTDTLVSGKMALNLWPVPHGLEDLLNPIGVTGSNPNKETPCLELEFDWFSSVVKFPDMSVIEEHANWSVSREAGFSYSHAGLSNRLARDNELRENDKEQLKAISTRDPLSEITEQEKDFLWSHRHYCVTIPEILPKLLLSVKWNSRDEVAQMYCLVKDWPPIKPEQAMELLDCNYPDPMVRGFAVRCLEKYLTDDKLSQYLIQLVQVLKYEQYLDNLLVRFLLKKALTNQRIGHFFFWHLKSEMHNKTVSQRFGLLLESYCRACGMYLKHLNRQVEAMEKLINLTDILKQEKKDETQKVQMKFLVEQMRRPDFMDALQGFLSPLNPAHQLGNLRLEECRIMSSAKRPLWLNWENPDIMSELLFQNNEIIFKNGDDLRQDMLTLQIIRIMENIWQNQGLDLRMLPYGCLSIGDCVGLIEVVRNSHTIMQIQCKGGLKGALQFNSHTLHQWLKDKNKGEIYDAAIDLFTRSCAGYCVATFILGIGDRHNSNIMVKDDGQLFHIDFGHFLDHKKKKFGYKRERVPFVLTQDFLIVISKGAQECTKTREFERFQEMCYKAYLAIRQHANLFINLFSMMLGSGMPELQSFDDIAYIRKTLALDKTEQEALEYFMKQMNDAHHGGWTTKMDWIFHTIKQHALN
T1 sequence (P27986 whole entry partner, canonical isoform): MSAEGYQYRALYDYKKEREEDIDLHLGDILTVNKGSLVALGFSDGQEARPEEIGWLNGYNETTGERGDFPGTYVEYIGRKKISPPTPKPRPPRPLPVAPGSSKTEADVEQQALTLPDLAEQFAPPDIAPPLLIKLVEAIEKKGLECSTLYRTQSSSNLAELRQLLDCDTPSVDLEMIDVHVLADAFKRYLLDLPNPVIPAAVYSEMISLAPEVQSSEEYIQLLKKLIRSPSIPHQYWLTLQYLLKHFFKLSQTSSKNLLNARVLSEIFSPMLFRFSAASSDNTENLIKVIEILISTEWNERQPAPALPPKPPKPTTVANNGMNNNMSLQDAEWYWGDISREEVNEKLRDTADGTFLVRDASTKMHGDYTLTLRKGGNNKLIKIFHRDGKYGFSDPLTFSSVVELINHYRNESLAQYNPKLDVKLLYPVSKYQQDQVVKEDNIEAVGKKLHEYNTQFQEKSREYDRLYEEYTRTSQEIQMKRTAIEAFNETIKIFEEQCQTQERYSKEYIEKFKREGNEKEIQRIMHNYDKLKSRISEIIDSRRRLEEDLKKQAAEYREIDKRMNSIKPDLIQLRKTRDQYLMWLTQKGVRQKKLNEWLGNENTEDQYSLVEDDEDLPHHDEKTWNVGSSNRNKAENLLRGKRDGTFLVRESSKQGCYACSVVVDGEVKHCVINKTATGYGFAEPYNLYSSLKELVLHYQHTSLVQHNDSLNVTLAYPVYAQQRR

SMILES | specificity in inhibiting PI3K α (PI3K α (p110α/p85α)) | tumor weight of a breast cancer model [1] | B cell function in vivo (antibody production as percentage of vehicle control) (B cell function) | inhibition of the PI3K pathway [2] | Akt phosphorylation at serine 473 ([3]; PTEN-mutant cell line, FIG. 12B) | Akt phosphorylation at serine 473 ([3]; western blot, FIG. 12A) | proliferation of tumor cells [4] | tumor weight [5] | B cell function in vivo (antibody production, ELISA) [6] | Blood Glucose Fold Over Vehicle Control ([7]; 60 mg/kg QD) [fold] | Blood Glucose Fold Over Vehicle Control ([7]; 70 mg/kg QD 3on/4off) [fold] | Blood Glucose Fold Over Vehicle Control ([7]; 140 mg/kg QD 3on/4off) [fold] | Blood Glucose Fold Over Vehicle Control ([7]; 210 mg/kg QW) [fold] | inhibition of Akt phosphorylation (Akt phosphorylation)
Nc1nc2cc(-c3ccc4ncc(C(=O)N5CCOCC5)n4c3)ccc2o1 [Compound A] | specificity of Compound A in inhibiting PI3K α over mTOR and other PI3K isoforms | reduction in tumor weight | not | inhibition of the PI3K pathway | reduced inhibition of Akt phosphorylation at serine 473 | inhibition of Akt phosphorylation at serine 473 | preferentially inhibits proliferation of tumor cells harboring PI3K α mutations | reduction in tumor weight | not | 0.97 | 1.02 | 1.26 | 1.16 | –
CC(C)n1nc(-c2ccc3oc(N)nc3c2)c2c(N)ncnc21 [Compound B] | – | – | – | – | – | – | – | – | – | – | – | – | – | differential inhibition of Akt phosphorylation at serine 473 over threonine 308
